In US8251060B2, “Device and method for delivering an aerosol drug” (priority 2006, dated 2012):

Columns and labels:
[1] = aerosol formed from the polyol; cited from earlier work
[2] = Mass transfer of polyol-drug formulations from substrate in device with puffing equipment; effluent collected on Cambridge pads, weighed, nicotine by GC/MS; conditions: after heating in device with PEG

Row | Compound | MMAD [1] | decomposition products from nicotine in the chromatograms (GC/MS of extracts of collected effluent) [2]
1 | OCC(O)CO [Glycerin] | less than 1.5 micrometers | –
2 | CN1CCCC1c1cccnc1.O=C(O)C(O)C(O)C(=O)O (stereo not shown) [NIC B, nicotine bitartrate] | – | no measurable decomposition products
3 | CN1CCCC1c1cccnc1 (stereo not shown) [NIC, nicotine] | – | no measurable decomposition products
4 | CC(O)CO (stereo not shown) [Propylene Glycol (PEG), Propylene Glycol] | less than 0.9 micrometers | –
